Data on six compounds can be found in article PMC2810339, “Allosteric Regulation of HIV-1 Reverse Transcriptase by ATP for Nucleotide Selection” (PLoS ONE, 2010).

What all share (assay type): biochemical, HIV-1
For test [1], the system named is multi-NRTI-resistant RT (ERT-mt6), purified p51/p66 heterodimer. The test can be described thus: RNA-dependent DNA polymerase activity, dTTP incorporation into poly (rA)·p(dT)12-18, steady-state kinetics. Particulars: for fold increase in IC50 of AZTTP compared to AZTTP without the compound: in the presence of 5 mM of the indicated compound; for fold increase in Ki^NRTI value compared to without ATP: at 3 mM of ATP. As to the method:
(§1) RNA-dependent DNA polymerase activity was measured using [α-^32P]dTTP and poly(rA)/poly(dT)12-18 as described previously. […] These experiments were performed in duplicate and repeated two to six times.
(§2) The averages of the experimental data were fit by a nonlinear regression method using the program Igor Pro (WaveMetrics, USA). The kinetics parameters were determined by the Michaelis-Menten equation: [drawing 1] (1) where [S] is the substrate concentration; Km^app is the apparent Michaelis-Menten constant; and Vmax^app is the apparent maximal rate attained when the enzyme active sites are saturated by substrate.
(§3) Using this model, the enzyme kinetic parameters were calculated using Equations 2–5.
(§4) Vmax^app and Km^app are defined as [drawing 2] (2) and [drawing 3] (3) respectively, where Km is the Michaelis-Menten constant; [E] is the enzyme concentration; [I] is the inhibitor concentration; Ki and Ki′ are the inhibition constants for the enzyme and the complex of the enzyme with substrate; and kcat^app is the apparent turnover number: [drawing 4] (4) where kcat is the turnover number.
(§5) The kcat^app and Km^app that can be derived from the model (Figure 2C) are [drawing 5] (5) and [drawing 6] (6) where Ki^ATP is the dissociation constant of ATP; Ki^AZTTP is the dissociation constant of AZTTP; [I^ATP] is the ATP concentration; and [I^AZTTP] is the AZTTP concentration.

The subject of test [2] is NRTI-sensitive RT (93JP-NH1), purified p51/p66 heterodimer. The description is as above. The following applies: for fold increase in Ki^NRTI value compared to without ATP: at 3 mM of ATP. The method, then: as §1, §2, §3, §4, §5
The subject of test [3] is D113A/N mutants of ERT-mt6 RT. Kind of test: RNA-dependent DNA polymerase activity of site-directed RT mutants from ERT-mt6. Particulars: D113A/N versus ERT-mt6 RT; 5 mM ATP (Figure S4C). The method, then:
The purified RTs were dissolved in the RT stock buffer (50 mM Tris-HCl pH 7.5, 75 mM KCl, 5 mM MgCl2, 2 mM DTT, 0.05% NP40, and 50% glycerol)[32], [33] and kept at −30°C until use. RNA-dependent DNA polymerase activity was measured using [α-^32P]dTTP and poly(rA)/poly(dT)12-18 as described previously. For the RT reaction in the presence of ATP, RT activities were measured in 100 µl of RT reaction cocktail consisting of 50 mM Tris-HCl pH 7.5, 75 mM KCl, 5 mM MgCl2, 2 mM DTT, 0.05% NP40, and 50% glycerol containing RT (1–10 nM), dTTP (0.2–18 µM), and ATP (0–4 mM). For the RT reaction in the presence of ATP and NRTI, RT activities were measured in 100 µl of the RT reaction cocktail containing RT (1–10 nM), dTTP (0.2–18 µM), ATP (0–5 mM), and AZTTP or d4TTP (0–1 µM). These experiments were performed in duplicate and repeated two to six times. […]
Supplementary file pone.0008867.s004.tif: Figure S4 Data on RT mutants from the ERT-mt6 RT. […] RNA-dependent DNA polymerase activity of the purified RTs (20 nM) was measured using a [α-^32P]dTTP and poly (rA)⋅p(dT)12-18 system. […] RNA-dependent DNA polymerase activity of the purified mutant RTs was measured using various concentrations of [α-^32P]dTTP and poly (rA)⋅p(dT)12-18 in the presence of ATP. […]

Where [4] appears, read: 0-4 mM ATP, Lineweaver-Burk double-reciprocal plots.
Where [5] appears, read: ATP binding to RT-template-primer complex (RT complex 1).
The mark [6] stands for this setting: ATP binding to RT-template-primer-dTTP complex (RT complex 2).
Where [7] appears, read: dTTP incorporation, absence of ATP.

As for `Nc1ncnc2c1ncn2[C@@H]1O[C@H](COP(=O)(O)OP(=O)(O)NP(=O)(O)O)[C@@H](O)[C@H]1O` [AMP-PNP, Adenosine 5′-(β, γ-imido) triphosphate], the “fold increase in IC50 of AZTTP compared to AZTTP without the compound” value (from here on “fold increase … to AZTTP without the compound”) in test [1] was “approximately 150 fold”.

As usually defined, the Ki is a measure of affinity in units of concentration, obtained from inhibition or displacement. A high value points to weaker binding. On to `Nc1ncnc2c1ncn2[C@@H]1O[C@H](COP(=O)(O)OP(=O)(O)OP(=O)(O)O)[C@@H](O)[C@H]1O` [ATP], for which the “mode of inhibition of dTTP incorporation” value in test [2] (setting [4]) and in test [1] (setting [4]) was “mixed noncompetitive inhibition” in each case. Besides, the Ki in test [2] (setting [5]) came out at 2.9 ± 1.3 mM; in test [1] (setting [5]) it was 2.8 ± 1.3 mM. Further, the figures for the “Ki′^ATP” value in test [2] (setting [6]) and in test [1] (setting [6]) were 1.2 ± 0.5 mM and 1.1 ± 0.4 mM, respectively. In addition, in test [1], the “fold increase … to AZTTP without the compound” value is on record as “approximately 350 fold”.

Turning to `Cc1cn([C@H]2C[C@H](N=[N+]=[N-])[C@@H](COP(=O)(O)OP(=O)(O)OP(=O)(O)O)O2)c(=O)[nH]c1=O` [AZTTP, 3′-Azido 3′-deoxythymidine 5′-triphosphate], the “fold reduction in the IC50 of AZTTP” value in test [3] is 4- to 5 fold. The “fold increase in Ki^NRTI value compared to without ATP” value in test [2] was “about 6.8 fold”; in test [1], “about 30 fold”.

Regarding `Cc1cn([C@H]2C=C[C@@H](COP(=O)(O)OP(=O)(O)OP(=O)(O)O)O2)c(=O)[nH]c1=O` [d4TTP, 3′-deoxy-2′, and 3′-didehydrothymidine 5′-triphosphate], the results for the “fold increase in Ki^NRTI value compared to without ATP” value in test [2] and in test [1] were around 0.6 fold and around 8.5 fold, respectively.

In general, kcat refers to the maximal rate divided by the concentration of active sites. As usually defined, the Km is the concentration of substrate that gives half-maximal velocity. For `Cc1cn([C@H]2C[C@H](O)[C@@H](COP(=O)(O)OP(=O)(O)OP(=O)(O)O)O2)c(=O)[nH]c1=O` [dTTP], the kcat in test [2] (setting [7]) was determined as 1.04 ± 0.01 s⁻¹; in test [1] (setting [7]) it was 0.49 ± 0.01 s⁻¹. The Km in test [2] (substrate dTTP, absence of ATP) amounted to 4 ± 0.1 µM; in test [1] (substrate dTTP, absence of ATP) it was 13.8 ± 0.5 µM.

Consider NaPO4, for which the “fold increase … to AZTTP without the compound” value in test [2] (in the presence of 5 mM of the indicated compound) and in test [1] was “little effect” in each case.
